# Reference: patent EP4624457A1, “I[…] DERIVATIVES, I[…] NEURODEGENERATIVE DISEASES” (Centre National de la Recherche Scientifique, priority 2024, dated 2025)
# Test system: HCT116 cells
# Assay: JC-1 mitochondrial membrane potential assay (flow cytometry)
# Format: cell-based, human
# Procedure: • Figure 1 represents the chemical structure of ingrilimine according to compound (Illa) formula. • Figure 2 represents the cytotoxic activity of ingrilimine. A2780 ovarian and HT29 colorectal carcinoma cells were grown in RPMI 1640 supplemented with 10% fetal calf serum (FCS) and 1% glutamine. U87-MG glioblastoma cells were grown in Dulbecco minimal essential medium containing 4.5 g/L glucose, 10% FCS and 1% glutamine at 37 °C in a humidified atmosphere containing 5% CO2. For IC50 determination, the cells were seeded in 96-well plates (3 × 10^3 cells/well) containing 90 µL of growth medium. After 24 h of culture, the cells were treated with ingrilimine at 10 different final concentrations. Cell viability was determined by luminescence after 72 h incubation. (a) Effect of ingrilimine on A2780 ovarian carcinoma cells. (b) Effect of ingrilimine on U87-MG glioblastoma cells. (c) Effect of ingrilimine on U87-MG glioblastoma cells • Figure 3a-3f represent the mitochondrial dysfunction provoked by ingrilimine. HCT116 cells were treated with ingrilimine in the range of […] for 24h and 48h. Sector Q normal cells that accumulated the JC-1 dye (fluorescence emission 590 nm). […] (a) Non-treated cells incubated with the carrier (DMSO) for 24 h. (b) HCT116 cells incubated with 10 nN ingrilimine for 24 h. (c) HCT116 cells incubated with 250 nM ingrilimine for 24 h. (d) Non-treated cells incubated with the carrier (DMSO) for 48 h. (e) HCT116 cells incubated with 10 nN ingrilimine for 48 h. (f) HCT116 cells incubated with 250 nM ingrilimine for 48. Changes in fluorescence emission were recorded by flow cytometry using the JC-1 mithocondrial membrane potential-dependent fluorescent dye. NT = non-treated cells; IngX = ingrilimine. • Figure 4a-4f represents phosphatidylserine exposure provoked by ingrilimine. […] Quadrants D1 and D2 with dead or necrotic cells, quadrant D3 with normal cells and quadrant D4 with apoptotic cells following phosphatidylserine exposure. (a) Non-treated A2780 cells incubated with the carrier (DMSO) for 24h. (b) A2780 cells incubated with 10 nM ingrilimine for 24 h. (c) A2780 cells incubated with 250 nM ingrilimine for 24 h. (d) Non-treated A2780 cells incubated with the carrier (DMSO) for 48 h. (e) A2780 cells incubated with 10 nM ingrilimine for 48 h. (f) A2780 cells incubated with 250 nM ingrilimine for 48. […] exposure in A2780 cell was quantified by flow cytometry using FITC-Annexin V. Dead or necrotic cells were detected using the vital dye propridium iodide. NT = non-treated cells; IngX = ingrilimine. • Figure 5 represents the antagonistic activity of ingrilimine (named "IngX" in the figure) and portimine (named "Port A" in the figure) against nicotinic acetylcholine receptors recorded by two-electrodes voltage clamp electrophysiology on Xenopus laevis oocytes. Clamped Xenopus laevis oocytes having incorporated the muscle (α1)2βγδ nAChR subtype from Torpedo marmorata (filled squares), or expressing the neuronal α3β2 nAChR subtype from rat (filled triangles), or expressing the human neuronal α7 nAChR subtype (filled circles) were exposed to portimine (100 nM - 1 mM) for 45 seconds. […] A Xenopus laevis oocyte expressing the human α7 nAChR subtype was exposed to 100 µM acetylcholine triggering the immediate opening of the receptor's channel (black bold line) followed by the very-fast closure of the channel ([…]) that became insensitive to acetylcholine during the rest of the 5 seconds exposure (desensitization). When a Xenopus laevis oocyte expressing the human α7 nAChR subtype was exposed first to 10 nM ingrilimine for 45 seconds and then to a mixture (Mix) containing 10 nM ingrilimine and 100 µM acetylcholine, the receptor's channel was closed denoting a strong antagonistic activity of the tested toxin against the α7 nAChR subtype (dotted line). […]
smiles,measurement,setting,value
"C=CC1=C[C@@H]2C[C@@H](O)[C@@H](O)/C(C)=C/C/C(C)=C/CCC3=NCCC[C@]32CC1 [Ingrilimine, ingrilimine]",JC-1 %,"10 nM, 24 h",5.1%
same,JC-1 %,"10 nM, 48 h",4.4%
same,JC-1 %,"50 nM, 24 h",6.1%
same,JC-1 %,"50 nM, 48 h",22.6%
same,JC-1 %,"100 nM, 24 h",14.9%
same,JC-1 %,"100 nM, 48 h",44.1%
same,JC-1 %,"250 nM, 24 h",22.7%
same,JC-1 %,"250 nM, 48 h",64.1%
same,JC-1 %,"500 nM, 24 h",36.9%
same,times less potent than portimine in inducing mitochondrial membrane depolarization,"HCT116, JC-1",10 times
C=CC1=C[C@@H]2[C@@H]3O[C@]4(CC[C@H](O4)[C@@H](C)C[C@@H](O)C3=O)C[C@H](O)C3=NCC[C@@]32CC1 [Portimine-A],JC-1 %,"5 nM, 48 h",31.6%
same,JC-1 %,"10 nM, 24 h",19.7%
same,JC-1 %,"10 nM, 48 h",44.6%
same,JC-1 %,"20 nM, 24 h",23.9%
same,JC-1 %,"20 nM, 48 h, listed as Portimine",62.1%
same,JC-1 %,"20 nM, 48 h, listed as portimine",62.3%
same,JC-1 %,"50 nM, 24 h",37.0%
